Key:
L3.6pl cells [1] = assay: Human orthotopic model of pancreatic cancer, L3.6pl cells in nude mice; assay type: in vivo
Method: In the case of the human orthotopic model, L3.6pl pancreatic carcinoma cells (passage 24-26) were suspended in Hank's balanced salt solution (Invitrogen, Karlsruhe, Germany) after trypsinization. The cells were injected orthotopically in the pancreas of male nude mice as described (Bruns C J et al. (1999) Neoplasia 1(1):50-62). Two groups of 15 mice each were injected i.p. 7 days later with either the human v6 peptide respectively rat control peptide (20 μg). For all experiments described and depicted herein either the rat 14mer control peptide or the human 14mer peptide were used. All experiments were then repeated with the rat 5mer control peptide or the human 5mer peptide (N-R-W-H-E, SEQ ID NO: 2). […] The injection was repeated three times per week for 21 days. Two days after the last treatment the animals were killed. […]
A comparison of different CD44v6 peptide derivatives was performed in animals bearing a orthotopic L3.6pl tumor. 10 groups of 5 animals each received a dose of 20 μg peptide per injection three times per week for 3 weeks with the compounds listed in Table 4. Three weeks after starting the treatment the animals were sacrificed and analyzed for macroscopic metastases and tumor volume.

L3.6pl cells [2] = assay: Regression of established metastases, L3.6pl orthotopic mouse model; assay type: in vivo, nude mice; conditions: treatment started three weeks after implantation; human v6 peptide or rat control peptide 20 μg i.p.
Method: In order to examine the regression of metastases (either BSp73ASs6 or L3.6pl) were implanted as described above. Tumor growth was allowed for three weeks. At that time all animals had developed metastases in the control group. Animals were injected i.p. with 20 μg (L3.6pl orthotopic mouse model: human v6 peptide or rat control peptide) or i.v. with 200 μg (rat syngeneic model: rat v6 peptide or mouse control peptide) of peptides three times per week. Animals were killed 23 days after the start of the peptide treatment.
The specific binding of the CD44v6 peptides to specific areas of the lungs in the rat system and of the liver in the human model raises the question whether these peptides might have an effect on already established metastases. In the experiments described in FIGS. 2 and 4 the peptides were applied early after injection of the tumor cells and repressed completely the establishment of metastases. In order to measure the effect of the CD44v6 peptide on already established metastases, other experimental settings were used. […] At the end of the experiments metastases could be detected in all animals treated with the control peptide (Table 3, FIG. 6B for the BSp73ASs6 cells, Table 3, FIG. 6C for L3.6pl cells) whereas animals treated with the species-specific CD44v6 peptides were free of metastasis. […]

HUVEC [3] = assay: HUVEC spheroid sprouting assay; assay type: cell-based, human; conditions: 100 ng/ml peptide, VEGFs 40 ng/ml, 48 h
Method: FIG. 19: Spheroids of HUVECs (750 cells) were generated in hanging drops. They were suspended in Endothelial Cell Growth Medium containing 1 mg/ml rat tail collagen I and 0.6% (wt/vol) methylcellulose and distributed in 48-well plates (30 spheroids/well). After solidification at 37° C. the mixture was overlaid with Endothelial Cell Growth Medium containing 100 ng/ml v6 peptide (human v6 14mer) or control peptide and VEGFs (40 ng/ml). Pictures were taken 48 h later and sprouting was quantified with the computer program ImageJ.
Clusters of HUVEC cells, so-called spheroids, were generated in hanging drops and embedded in a three-dimensional collagen matrix. They were overlaid with medium containing the blocking substances and the growth factors. Activated by the growth factors VEGF-A165 and VEGF-A121 the ECs started to grow out of the spheroids (FIG. 19). […] Sprouting of the ECs was quantified by analysing the total length of all sprouts originating from one spheroid.

HUVEC [4] = assay: Angiogenic response of HUVECs to angiogenic Langerhans islets; assay type: cell-based, human; conditions: HUVEC/collagen co-culture with islets, 5 to 7 days
Method: FIG. 20: The response of HUVECs to a mixture of angiogenic factors produced by angiogenic Langerhans islets can be reduced by CD44v6 specific inhibitors. HUVEC cells were mixed with CD44v6 antibody, CD44v6 peptide or control peptide and then suspended in a collagen gel. Hyperplastic angiogenic Langerhans islets isolated from the pancreas of 8-9 week old RIP1Tag2 mice were placed on top of the HUVEC/collagen mixture and overlaid with medium. Every third day new antibody or peptide was added and pictures were taken after 5 to 7 days. The number of islets that induced an angiogenic response of the ECs is given as percentage of all analysed islets. For quantification 60 islets per condition were analysed. Both the CD44v6 antibody and the CD44v6 peptide (human v6 14mer) reduced the angiogenic response, and the reduction obtained with the antibody is significant (p<0.05).
Langerhans islets are able to stimulate an angiogenic response when co-cultured with HUVEC cells in a collagen matrix. Such angiogenic hyperplastic islets of Langerhans were isolated by collagenase perfusion. They produce a mixture of angiogenic factors and thereby attract the ECs to get organised in capillary like structures. […] In agreement with published data around 60% of islets stimulated an angiogenic response in the control experiment (FIG. 20).

[5] = 20 μg i.p. three times per week for three weeks, start 7 days after implantation

“KEQWFGNRWHEGYR [human 14mer, human CD44v6 14mer peptide]” was tested, and the “metastatic spreading at 10 μg” value (L3.6pl cells [1]; 10 μg per injection, three times per week for 3 weeks) was “complete inhibition of metastatic spreading”, the “tumor angiogenesis (vessel number and vessel size, CD31)” value (L3.6pl cells [1]; 20 μg i.p. three times per week for three weeks) was “decreased angiogenesis” and the “Met activation in the tumor (phospho-Met immunofluorescence)” value (L3.6pl cells [1]; [5]) was “completely repressed Met activation”. The “outgrowth of the primary tumor in the pancreas” value (L3.6pl cells [1]; [5]) was “strongly repressed”, the “metastasis formation (liver)” value (L3.6pl cells [1]; 20 μg i.p. three times per week for three weeks, start 7 days after implantation, listed as SEQ ID No.: 6) was “capable of inhibiting metastasis” and the “metastasis formation (liver)” value (L3.6pl cells [1]; 20 μg i.p. three times per week for three weeks, start 7 days after implantation, listed as human-specific peptide) was “completely inhibited metastasis formation within the liver”. The “reduction of tumor size, ranking (side-by-side comparison)” value (L3.6pl cells [1]; 20 μg per injection three times per week for 3 weeks (FIG. 23A)) was “strongest reduction of tumor size”, the “variability in the individual tumor size within the group” value (L3.6pl cells [1]; 20 μg per injection three times per week for 3 weeks (FIG. 23B)) was “low variability” and the “metastatic spreading to the liver (side-by-side comparison)” value (L3.6pl cells [1]; 20 μg per injection three times per week for 3 weeks (FIG. 24)) was “complete inhibition of metastasis”. The “tumor growth compared to the control peptide (side-by-side comparison)” value (L3.6pl cells [1]; 20 μg per injection three times per week for 3 weeks, 5 animals per group) was “significant reduction in tumor growth”, the “liver metastases at 0.2 and 2 μg” value (L3.6pl cells [1]; 0.2 and 2 μg per injection, three times per week for 3 weeks) was “showed liver metastases but the average number of metastases per animal was reduced” and the “size / growth of the primary tumor (dose reduction study)” value (L3.6pl cells [1]; three injections per week for 3 weeks, compared to control groups (FIG. 22C)) was “significant decrease of the size of the primary tumor”. The “presence of already established (liver) metastases after treatment” value (L3.6pl cells [2]) was “eliminate already established metastases”, the “sprouting in response to VEGF-A (VEGF-A165, VEGF-A121)” value (HUVEC [3]) was “blocked completely” and the “angiogenic response of the ECs” value (HUVEC [4]) was “reduced”.

Source: patent US9593146B2, “CD44v6-derived peptides for treating metastasizing cancer” (AMCURE GMBH, priority 2012, dated 2017)
